This note sets out measurements from article PMC2928817 (PLoS Pathogens, 2010).

The test system of experiment [1] is A/Vietnam/HCM9727/2009 (VN9727s). On the set-up: species or system 2009 pandemic influenza A (H1N1) virus. The conditions noted are these: in vivo.
Experiment [2] deals with A/Osaka/164/2009 (O164s). On the set-up: species or system 2009 pandemic influenza A (H1N1) virus. The conditions noted are these: in vivo.
In experiment [3] the test system is A/Osaka/180/2009 (O180r). On the set-up: species or system 2009 pandemic influenza A (H1N1) virus. The conditions noted are these: in vivo.
Experiment [4] has as its system A/Vietnam/HN32060/2009 (VN32060r). The arrangement: species or system 2009 pandemic influenza A (H1N1) virus. The conditions noted are these: in vivo.
Experiment [5] has the same test system. The format is cell-based, 2009 pandemic influenza A (H1N1) virus.
Experiment [6] deals with A/Osaka/164/2009 (O164s). It counts as cell-based, 2009 pandemic influenza A (H1N1) virus.
In experiment [7] the test system is A/Osaka/180/2009 (O180r). The format is cell-based, 2009 pandemic influenza A (H1N1) virus.
Experiment [8] concerns A/Vietnam/HCM9727/2009 (VN9727s). The format is cell-based, 2009 pandemic influenza A (H1N1) virus.

Regarding `[H]/N=C(\N)N[C@H]1C=C(C(=O)O)O[C@@H]([C@H](OC)[C@H](O)COC(=O)CCCCCCC)[C@@H]1NC(C)=O` [CS-8958], the “replication of VN9727s in the lungs of mice” value in experiment [1] is recorded as “significantly reduced”. For the same compound, in the experiment with A/Osaka/164/2009 (O164s) [2], the “replication of O164s in the lungs of mice” value is recorded as “significantly reduced”. Besides, the “replication of O180r in the lungs of mice” value (shortened to “replication of O180r”) with A/Osaka/180/2009 (O180r) [3] is listed as “significantly reduced”. Besides, the “replication of VN32060r in the lungs of mice” value (“replication of VN32060r” below) in experiment [4] was “significantly reduced”.
Turning to `CCC(CC)O[C@@H]1C=C(C(=O)O)C[C@H](N)[C@H]1NC(C)=O` [Oseltamivir carboxylate], in experiment [5], the “growth of VN32060r in the presence of NA inhibitor” value is on record as “replicated efficiently”. In addition, the “growth of O164s in the presence of NA inhibitor” value in the experiment on A/Osaka/164/2009 (O164s) [6] is “severely impaired”. For the same compound, the “growth of O180r in the presence of NA inhibitor” value in the experiment on A/Osaka/180/2009 (O180r) [7] is given as “replicated efficiently”. Further, the “growth of VN9727s in the presence of NA inhibitor” value in experiment [8] is on record as “severely impaired”.
On to `CC(=O)N[C@H]1[C@H]([C@H](O)[C@H](O)CO)OC(C(=O)O)=C[C@@H]1N=C(N)N` [Zanamivir], for which, in experiment [5], the “growth of VN32060r in the presence of NA inhibitor” value is given as “inhibited the replication”. The “growth of O164s in the presence of NA inhibitor” value in the experiment with A/Osaka/164/2009 (O164s) [6] is reported as “inhibited the replication”. For the same compound, in the experiment on A/Osaka/180/2009 (O180r) [7], the “growth of O180r in the presence of NA inhibitor” value is “inhibited the replication”. The “growth of VN9727s in the presence of NA inhibitor” value in experiment [8] was “inhibited the replication”.
With `NC(=O)c1nc(F)c[nH]c1=O` [favipiravir, Favipiravir], the “replication of VN9727s in the lungs of mice” value in experiment [1] is reported as “significantly reduced”. Moreover, the “replication of O164s in the lungs of mice” value with A/Osaka/164/2009 (O164s) [2] is reported as “significantly reduced”. The “replication of O180r” value with A/Osaka/180/2009 (O180r) [3] was “significantly reduced”. The “replication of VN32060r” value in experiment [4] is “significantly reduced”.
Regarding `CCOC(=O)C1=C[C@@H](OC(CC)CC)[C@H](NC(C)=O)[C@@H](N)C1` [oseltamivir, oseltamivir phosphate], in experiment [1], the “virus titers of VN9727s in the lungs of mice” value is listed as “significantly reduced”. Further, the “virus titers of O164s in the lungs of mice” value in the experiment with A/Osaka/164/2009 (O164s) [2] is given as “significantly reduced”. The “replication of O180r” value in the experiment on A/Osaka/180/2009 (O180r) [3] was “not inhibited”. Besides, in experiment [4], the “replication of VN32060r” value is listed as “not inhibited”.
